{
  "source": "patent US20250009725A1",
  "about": "“PHARMACEUTICAL COMPOSITION HAVING EXCELLENT DISSOLUTION PROPERTIES” (DAIICHI SANKYO COMPANY, LIMITED, priority 2021, published 2025)",
  "assay": "Solubility and dissolution of valemetostat tosylate under vigorous or slow agitation",
  "type": "physicochemical",
  "description": "The object of the present invention is to provide a pharmaceutical composition in which valemetostat or a pharmaceutically acceptable salt thereof, particularly valemetostat tosylate, has excellent dissolution properties. […] Since the effect of vigorous agitation cannot be expected in vivo, a pharmaceutical composition having sufficient dissolution properties in vivo is needed.",
  "note": "Structures can show the parent of a compound that is named as a salt.",
  "data": [
    {"smiles": "Cc1cc(C)c(CNC(=O)c2cc(Cl)c3c(c2C)O[C@@](C)([C@H]2CC[C@H](N(C)C)CC2)O3)c(=O)[nH]1", "note": "[valemetostat tosylate, (2R)-7-chloro-2-[trans-4-(dimethylamino)cyclohexyl]-N-[(4,6-dimethyl-2-oxo-1,2-dihydropyridin-3-yl)methyl]-2,4-dimethyl-1,3-benzodioxol-5-carboxamide p-toluenesulfonate]", "values": [
      {"measurement": "solubility (in words)", "result": "sufficient solubility"}
    ]}
  ]
}
